By half-life is commonly meant the time needed for the level to fall by half in the phase considered.

Like-named read-outs stand apart in the source and are kept apart here. No end group written: not given here.

The test system of data set [1] is putative serine protease in Staphylococcus nepalensis culture supernatant. In kind it is biochemical.
The nature of data set [2]: Half-life of corisin in vitro in a cell culture system. Details: Corisin concentration in cell culture medium: unit not given here. In kind it is in vitro ADME, human. The following applies: enzyme immunoassay; for Corisin concentration in cell culture medium: A549 culture, 10 µg/ml added. On the procedure: We assessed the half-life of corisin in a cell culture system to determine the elimination rate of corisin from a solution in a cell culture system. A549 alveolar epithelial cells were cultured up to confluence in DMEM supplemented with 10% heat-inactivated FBS. The cells were then washed and cultured in FBS (−) DMEM. Corisin was then inoculated into the cell culture medium at a final concentration of 10 µg/ml, and the cell supernatant was sampled after 0, 1, 3, 6, 12, and 24 h. The concentration of corisin was measured by enzyme immunoassay, and the half-life of corisin was determined.

[3] abbreviates: 0.1, 0.3, 1 mM, 0.5, 1 and 2 h at 37 °C, silver staining.

As to `CC(C)C[C@H](NC(=O)[C@H]1O[C@@H]1C(=O)O)C(=O)NCCCCN=C(N)N` [E-64], the Inhibition in data set [1] (0h, 3uM) worked out at 0; in data set [1] (0h, 10uM), 0; in data set [1] (0h, 30uM), 0; in data set [1] (0.5h, 3uM), 0; in data set [1] (0.5h, 10uM), 0; in data set [1] (0.5h, 30uM), 0. Also, the Inhibition is recorded as 0 in data set [1] (1h, 3uM); 0 in data set [1] (1h, 10uM); 0.2 in data set [1] (1h, 30uM); 0 in data set [1] (2h, 3uM); 0 in data set [1] (2h, 10uM); 0.03 in data set [1] (2h, 30uM). The “Effect on transglycosylase degradation by S. nepalensis culture supernatant” value (“Effect on transglycosylase degradation” below) in data set [1] (setting [3]) is given as “neither E-64 nor EDTA suppressed”.
As for `O=C(O)CN(CCN(CC(=O)O)CC(=O)O)CC(=O)O` [EDTA, ethylenediaminetetraacetic acid], the “Effect on transglycosylase degradation” value in data set [1] is “neither E-64 nor EDTA suppressed”.
For `Cl.NCCc1ccc(S(=O)(=O)F)cc1` [pefabloc SC], the “Effect on transglycosylase degradation” value in data set [1] (setting [3]) was “suppress transglycosylase degradation”.
As to `Cl.NCCc1ccc(S(=O)(=O)F)cc1` [pefabloc], the Inhibition in data set [1] (0h, 0.1mM) was found to be 0; in data set [1] (0h, 0.3mM), 0; in data set [1] (0h, 1mM), 0; in data set [1] (0.5h, 0.1mM), 53.32; in data set [1] (0.5h, 0.3mM), 87.64; in data set [1] (0.5h, 1mM), 98.7. Besides, the Inhibition in data set [1] (1h, 0.1mM) is listed as 56.04; in data set [1] (1h, 0.3mM), 90.52; in data set [1] (1h, 1mM) it was 98.55; in data set [1] (2h, 0.1mM) it was 52.92; in data set [1] (2h, 0.3mM) it was 90.94; in data set [1] (2h, 1mM), 99.04.
Take IVMPESSGNPNAVNPAGYR [corisin]: the “Half-life in solution in a human alveolar cell culture system” value in data set [2] (10 µg/ml in FBS(-) DMEM on A549 cells) was below 60 min. Also, the “Corisin concentration in cell culture medium” value is listed as 3931.8 in data set [2] (time 1 h); 2007.7 in data set [2] (time 3 h); 1433.4 in data set [2] (time 6 h); 1485.2 in data set [2] (time 12 h); 1357.9 in data set [2] (time 24 h). Also, in data set [2] (human, 10 µg/ml in FBS(-) DMEM on confluent A549 cells, sampled 0-24 h, exponential decay model, n = 4 per time point, read-out: Half-life in A549 epithelial cell culture medium (converted)), the half-life at 10 µg/ml is 42 min.

The values are drawn from PMC8943153, “Inhibition of lung microbiota-derived proapoptotic peptides ameliorates acute exacerbation of pulmonary fibrosis” (Nature Communications, 2022).
